Structures are written as SMILES.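 Dose response: 5 concentrations. Exposure: 48 h. Format: 96-well plates. Endpoint: linear interpolation; highest concentration if not reached. The concentration for 50% growth inhibition is given as GI50.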 Active and inactive are the calls of the source. Rule as the data show it: active = GI50 up to about 1.1 µM and inactive = higher.

Data on 11 molecules can be found in ChEMBL document CHEMBL1201862, “PubChem BioAssay data set” (2004).

Test systems include A549; CCRF-CEM; COLO 205; HOP-62; HOP-92; IGROV-1; K562; KM12; M14; MOLT-4; NCI-H226; NCI-H23; NCI/ADR-RES; OVCAR-3; OVCAR-5; RPMI-8226; SF-268; UACC-257; SK-MEL-28; SN12C.
Holding throughout (test): NCI-60 cell line screen, 48 h

Consider `COc1ccc(C2C3COc4ccccc4C3=NN2c2ccccc2)cc1` (stereo unspecified), for which the GI50 in the assay on A549, with CCRF-CEM, with COLO 205, with HOP-62, in the assay on HOP-92 and in the assay on IGROV-1 was > 100 µM (inactive) throughout. Also, the GI50 was > 100 µM (inactive) in the assay on K562; > 100 µM (inactive) with KM12; > 100 µM (inactive) with M14; 92.5 µM (inactive) in the assay on MOLT-4; > 100 µM (inactive) in the assay with NCI-H226; > 100 µM (inactive) in the assay with NCI-H23. Besides, the GI50 in the assay with NCI/ADR-RES, with OVCAR-3, in the assay on OVCAR-5, with RPMI-8226, with SF-268 and in the assay with UACC-257 was > 100 µM (inactive) each time.

`CCn1c(=O)c2c(=O)[nH][nH]c2c2ccccc21`: the GI50 in the assay with A549, in the assay on CCRF-CEM, in the assay on COLO 205, in the assay on HOP-62, in the assay with HOP-92 and in the assay with IGROV-1 was > 100 µM (inactive) in each case. For the same molecule, the GI50 in the assay with K562, with KM12, in the assay on MOLT-4, in the assay with NCI-H226, with NCI-H23 and with NCI/ADR-RES was > 100 µM (inactive) throughout. Besides, the GI50 with OVCAR-3, with OVCAR-5, with RPMI-8226, with SK-MEL-28, in the assay on SN12C and in the assay on UACC-257 was > 100 µM (inactive) in each case.

In the case of `C=C1CC2CC(=O)C(O)C(C1)C2` (stereo unspecified), the GI50 with A549, in the assay with CCRF-CEM, with COLO 205, in the assay with HOP-62, with HOP-92 and with K562 was > 100 µM (inactive) throughout. Besides, the GI50 was > 100 µM (inactive) with KM12; > 100 µM (inactive) with M14; > 100 µM (inactive) in the assay on MOLT-4; > 100 µM (inactive) in the assay with NCI-H226; 90.8 µM (inactive) in the assay with NCI-H23; > 100 µM (inactive) with NCI/ADR-RES. Further, the GI50 in the assay with OVCAR-3, with OVCAR-5, with RPMI-8226, in the assay with SF-268, in the assay on SN12C and in the assay on UACC-257 was > 100 µM (inactive) each time.

As to `CCOC(=O)CCC(NC(=O)c1ccc(Oc2nc3ccccc3nc2C(=O)OCC)cc1)C(=O)OCC` (stereo unspecified), the GI50 was > 100 µM (inactive) in the assay on A549; > 100 µM (inactive) with CCRF-CEM; > 100 µM (inactive) in the assay on COLO 205; 63 µM (inactive) in the assay with HOP-62; > 100 µM (inactive) in the assay on HOP-92; > 100 µM (inactive) with IGROV-1. In addition, the GI50 in the assay on KM12 is > 100 µM (inactive); in the assay on M14, > 100 µM (inactive); in the assay on MOLT-4 it was > 100 µM (inactive); in the assay with NCI-H23, > 100 µM (inactive); in the assay with NCI/ADR-RES it was 55.1 µM (inactive); in the assay with OVCAR-3 it was > 100 µM (inactive). The GI50 in the assay with OVCAR-5, in the assay with RPMI-8226, in the assay with SF-268, with SK-MEL-28, in the assay on SN12C and with UACC-257 was > 100 µM (inactive) each time.

With `C/C(CC(O)(C(F)(F)Cl)C(F)(F)Cl)=N\Nc1ccccc1`, the GI50 in the assay with A549 is 37.2 µM (inactive); in the assay with CCRF-CEM it was 29 µM (inactive); in the assay on COLO 205, 31.8 µM (inactive); with HOP-92, 21.7 µM (inactive); with IGROV-1 it was 36.3 µM (inactive); in the assay on K562, 35.5 µM (inactive). In addition, the GI50 in the assay on KM12 was 29.1 µM (inactive); in the assay with M14, 29.4 µM (inactive); in the assay with MOLT-4, 23.4 µM (inactive); in the assay with NCI-H226 it was 25.2 µM (inactive); in the assay with NCI-H23 it was 19.3 µM (inactive); with NCI/ADR-RES, 24.8 µM (inactive). Moreover, the GI50 is 19.1 µM (inactive) in the assay on OVCAR-3; > 100 µM (inactive) in the assay with OVCAR-5; 30.2 µM (inactive) in the assay with RPMI-8226; 47.2 µM (inactive) in the assay with SK-MEL-28; 44.7 µM (inactive) in the assay with UACC-257.

For `CC(C)OC(=O)NNc1c(Cl)cc(Cl)cc1Cl`, the GI50 was 53 µM (inactive) in the assay with A549; 53.6 µM (inactive) in the assay with CCRF-CEM; 49.1 µM (inactive) in the assay with COLO 205; > 100 µM (inactive) with HOP-62; 23.2 µM (inactive) in the assay on HOP-92; 37.3 µM (inactive) in the assay on IGROV-1. Moreover, the GI50 was 55.6 µM (inactive) with K562; 71.6 µM (inactive) in the assay with KM12; 51.5 µM (inactive) with M14; 58.7 µM (inactive) in the assay on MOLT-4; > 100 µM (inactive) in the assay on NCI-H23; 67.9 µM (inactive) in the assay with NCI/ADR-RES. Besides, the GI50 in the assay on OVCAR-3 is 56 µM (inactive); in the assay on OVCAR-5 it was > 100 µM (inactive); in the assay with RPMI-8226, 43.4 µM (inactive); in the assay with SF-268, 39.1 µM (inactive); with SK-MEL-28, > 100 µM (inactive); in the assay on SN12C, > 100 µM (inactive). Further, the GI50 in the assay with UACC-257 was 33.7 µM (inactive).

Regarding `COc1cc(Nc2nc3ccccc3n3cccc23)cc(OC)c1OC`, the GI50 in the assay with A549 was > 100 µM (inactive); in the assay with CCRF-CEM it was > 100 µM (inactive); with COLO 205, > 100 µM (inactive); in the assay on HOP-62, 19.1 µM (inactive); in the assay with HOP-92 it was 44.2 µM (inactive); in the assay with IGROV-1, 54.7 µM (inactive). Also, the GI50 in the assay with K562 was > 100 µM (inactive); in the assay on KM12, > 100 µM (inactive); with M14, > 100 µM (inactive); with MOLT-4, > 100 µM (inactive); with NCI-H23 it was 73.8 µM (inactive); in the assay on NCI/ADR-RES it was > 100 µM (inactive). In addition, the GI50 in the assay with OVCAR-3 was > 100 µM (inactive); in the assay with OVCAR-5, > 100 µM (inactive); in the assay with RPMI-8226, > 100 µM (inactive); in the assay on SF-268 it was 28.5 µM (inactive); in the assay on SK-MEL-28, > 100 µM (inactive); with UACC-257, > 100 µM (inactive).

For `COc1ccc(NC(=O)/C(=N/NC(N)=S)C2C(=O)NC(=S)NC2=O)c(OC)c1`, the GI50 in the assay on A549 was > 100 µM (inactive); with CCRF-CEM, 62.2 µM (inactive); with COLO 205, > 100 µM (inactive); in the assay on HOP-92, > 100 µM (inactive); with IGROV-1, > 100 µM (inactive); with K562, > 100 µM (inactive). Further, the GI50 in the assay with KM12, with M14, in the assay with MOLT-4, with NCI-H226, in the assay on NCI-H23 and in the assay on NCI/ADR-RES was > 100 µM (inactive) in each case. For the same molecule, the GI50 in the assay with OVCAR-3, in the assay with OVCAR-5, in the assay on RPMI-8226, in the assay with SF-268, with SK-MEL-28 and in the assay on SN12C was > 100 µM (inactive) throughout. For the same molecule, the GI50 in the assay with UACC-257 is > 100 µM (inactive).

`C=C(CO)[C@H]1CC/C(C)=C/CC/C(C)=C/C/C=C(\C)[C@H](O)C1`: the GI50 with A549 was 42 µM (inactive); with CCRF-CEM it was > 100 µM (inactive); in the assay with COLO 205, 22.3 µM (inactive); with HOP-62, > 100 µM (inactive); in the assay on HOP-92, 19.8 µM (inactive); with IGROV-1, 17.8 µM (inactive). Besides, the GI50 with K562 is 37.8 µM (inactive); in the assay on KM12 it was 15.9 µM (inactive); in the assay with MOLT-4, 18.3 µM (inactive); with NCI-H226, 30.5 µM (inactive); with NCI-H23, 29.2 µM (inactive); with NCI/ADR-RES, 27.3 µM (inactive). The GI50 in the assay on OVCAR-3 is 33.7 µM (inactive); in the assay on OVCAR-5 it was 47.1 µM (inactive); with RPMI-8226, 20 µM (inactive); in the assay on SF-268 it was 22.2 µM (inactive); with SK-MEL-28, 16 µM (inactive); in the assay with SN12C, 33.3 µM (inactive). Moreover, the GI50 with UACC-257 is 19.7 µM (inactive).

With `Cc1ccc(Nc2nc3c(=O)n(C)c(=O)n(C)c3nc2Nc2ccc(C)cc2)cc1`, the GI50 is 19.9 µM (inactive) in the assay with A549; 2.3 µM (inactive) in the assay on CCRF-CEM; 4.67 µM (inactive) in the assay on COLO 205; 18.9 µM (inactive) in the assay with HOP-62; 11.4 µM (inactive) in the assay with HOP-92; 15 µM (inactive) in the assay on IGROV-1. Further, the GI50 in the assay on K562 was 6.56 µM (inactive); with KM12, 16.4 µM (inactive); in the assay with MOLT-4, 14.8 µM (inactive); with NCI-H226 it was 28.8 µM (inactive); in the assay with NCI-H23, 15.9 µM (inactive); in the assay with NCI/ADR-RES, 17.2 µM (inactive). The GI50 was 16.4 µM (inactive) in the assay on OVCAR-5; 7.62 µM (inactive) with RPMI-8226; 16 µM (inactive) in the assay with SF-268; 16.7 µM (inactive) in the assay with SK-MEL-28; 15.5 µM (inactive) in the assay on SN12C; 15.7 µM (inactive) in the assay with UACC-257.

For `COc1cc(-c2c3c(cc4c2OCO4)[C@@H](Nc2ccc(-c4ccc(-c5ccc(N[C@@H]6c7cc8c(cc7C(c7cc(OC)c(O)c(OC)c7)[C@H]7C(=O)OC[C@H]67)OCO8)cc5)cc4)cc2)[C@H]2COC(=O)[C@@H]2C3)cc(OC)c1O` (stereo partly specified), the GI50 in the assay on A549 is 3.22 µM (inactive); in the assay on CCRF-CEM it was 3.13 µM (inactive); in the assay with COLO 205, 1.7 µM (inactive); in the assay on HOP-62, 2.58 µM (inactive); with HOP-92, 4.55 µM (inactive); with IGROV-1 it was 1.1 µM (active). Further, the GI50 with KM12 is 1.85 µM (inactive); with M14, 1.95 µM (inactive); in the assay with MOLT-4, 3.1 µM (inactive); in the assay on NCI-H226, 2.09 µM (inactive); in the assay with NCI-H23 it was 5.13 µM (inactive); in the assay on NCI/ADR-RES it was 1.85 µM (inactive). Moreover, the GI50 in the assay on OVCAR-3 is 2.36 µM (inactive); in the assay on OVCAR-5, 4.39 µM (inactive); in the assay with RPMI-8226, 2.52 µM (inactive); in the assay on SF-268, 2.33 µM (inactive); with SK-MEL-28, 1.85 µM (inactive); in the assay on SN12C, 5.21 µM (inactive). Besides, the GI50 with UACC-257 is 10.6 µM (inactive).
